Experimental data published in publication PMC12655172, “Borylated 5-Membered Ring Iminosugars: Synthesis and Biological Evaluation for Glycosidase Inhibition and Anticancer Properties for Application in Boron Neutron Capture Therapy (BNCT)—Part 2” (Pharmaceuticals, 2025).
“Also recorded” adds a separate entry of the source.

Legend:
Type in all cases: biochemical
[1] = tested on: α-D-glucosidase (Bacillus); assay: Glycosidase inhibition (Table 3 panel); details: 1 mg/mL aqueous solution; run in water
Method in brief: (§1)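 Enzymes tested at 27 °C in citric acid/disodium hydrogen phosphate buffer at each enzyme's optimum pH, with 1 mg/mL aqueous extract and […] para-nitrophenyl substrate. Reactions stopped with 0.4 M glycine (pH 10.4) within the exponential phase; absorbance read at 405 nm, triplicate means.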

[2] = tested on: T1, α-D-mannosidase (Jack bean); assay: Glycosidase inhibition (Table 3 panel); details: 1 mg/mL aqueous solution; run in water
T1 construct: purchased Sigma-Aldrich; host or cells: Jack bean
Method in brief: as §1

[3] = tested on: glycosidases in the panel; assay: Glycosidase inhibition, whole Table 2 panel
From the text: The enzymes α-D-glucosidase (yeast), β-D-glucosidases (almond, bovine liver), α-D-galactosidase (coffee beans), β-D-galactosidase (bovine liver), α-D-mannosidase (Jack bean), β-D-mannosidase (snail), α-L-rhamnosidase (P. decumbens), α-L-fucosidase (bovine kidney), trehalase (porcine kidney), β-D-glucuronidases (E. coli, bovine liver), amyloglucosidase (A. niger), para-nitrophenyl glycosides, and various disaccharides were purchased from Sigma-Aldrich Co (St. Louis, MO, USA).
Brush border membranes were prepared from the rat small intestine according to the method of Kessler et al., and were assayed at pH 6.8 for rat intestinal maltase using maltose. For rat intestinal maltase, porcine kidney trehalase, and A. niger amyloglucosidase activities, the reaction mixture contained maltose ([…]) and the appropriate amount of enzyme, and the incubations were performed for 10–30 min at 37 °C. The reaction was stopped by heating at 100 °C for 3 min. After centrifugation (600 g; 10 min), the resulting reaction mixture was added to the Glucose CII-test Wako (Wako Pure Chemical Ind., Osaka, Japan). The absorbance at 505 nm was measured to determine the amount of the released D-glucose. Other glycosidase activities were determined using an appropriate para-nitrophenyl glycoside as substrate at the optimum pH of each enzyme. The reaction mixture contained the substrate ([…]) and the appropriate amount of enzyme. The reaction was stopped by the addition of Na2CO3 ([…]). The released para-nitrophenol was measured spectrometrically at 400 nm. All reactions were run in […].

N[C@@H](Cc1ccc(B(O)O)cc1)C(=O)O [BPA, 4-borono-L-phenylalanine, reference compound]
Percentage inhibition α-D-Glucosidase Bacillus [1]: 19.9% | Percentage inhibition α-D-Mannosidase Jack Bean [2]: 0.6%

N[C@@H](Cc1ccc(B(O)O)cc1)C(=O)O [^10B-BPA, reference compound]
Percentage inhibition α-D-Glucosidase Bacillus [1]: 19.5% | Percentage inhibition α-D-Mannosidase Jack Bean [2]: −0.7%

N-(3-Hydroxyphenyl)-1,4-dideoxy-1,4-imino-L-gulitol [meta 7]
Inhibitory activity over the glycosidase panel, in words [3]: complete abrogation of inhibition; also recorded: abrogation of biological activity

CC1(C)O[C@H]2O[C@H]3[C@@H]([C@H]2O1)N(Cc1cccc(O)c1)C[C@H]3O [meta 6]
Inhibitory activity over the glycosidase panel, in words [3]: abrogates inhibitory activity

Borocaptate sodium [BSH, reference compound]
Percentage inhibition α-D-Glucosidase Bacillus [1]: 48.1% | Percentage inhibition α-D-Mannosidase Jack Bean [2]: −18.7%

CC1(C)O[C@H]2O[C@H]3[C@@H]([C@H]2O1)N(Cc1cccc(B(O)O)c1)C[C@H]3O [meta 5, N-(3-Methylphenylboronic acid)-3,6-dideoxy-3,6-imino-1,2-O-isopropylidene-α-D-glucofuranose]
Inhibitory activity over the glycosidase panel, in words [3]: abrogates inhibitory activity

CC1(C)O[C@H]2O[C@H]3[C@@H]([C@H]2O1)N(Cc1ccccc1B(O)O)C[C@H]3O [ortho 5]
Inhibitory activity over the glycosidase panel, in words [3]: abrogates inhibitory activity
